{
  "source": "paper PMC7539012",
  "about": "“Hyperphosphorylated tau aggregation and cytotoxicity modulators screen identified prescription drugs linked to Alzheimer's disease and cognitive functions” (Scientific Reports, 2020)",
  "note": "Structures can show the parent of a compound that is named as a salt.",
  "data": [
    {"tested_on": "T1, 1N4R p-tau", "T1 construct": "made in house; host or cells: E. coli (PIMAX system)", "assay": "p-tau aggregation modulator screen of 1280-compound library (ThS fluorescence net change over 16 h);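 also: 30 µM compound with 6 µM p-tau over 16 h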", "assay_type": "biochemical", "settings": "not given", "values": [
      {"smiles": "CCC1(c2cccc(O)c2)CCCCN(C)C1", "note": "(stereo not drawn) [Meptazinol hydrochloride]", "ThS net change": 462},
      {"smiles": "CCN(CC)C(=O)[C@]1(c2ccccc2)C[C@@H]1CN.Cl", "note": "[Milnacipran hydrochloride]", "ThS net change": 415}
    ]},
    {"tested_on": "T1, 1N4R p-tau", "assay": "p-tau aggregation modulator screen of 1280-compound library (ThS fluorescence net change over 16 h);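 also: 30 µM compound with 6 µM p-tau over 16 h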", "assay_type": "biochemical", "settings": "1280-compound library screen; ThS fluorescence net change over 16 h", "values": [
      {"smiles": "C=C1C[C@H]2[C@@H]3C=C(C)C4=CC(=O)CC[C@]4(C)[C@H]3CC[C@]2(C)[C@@]1(OC(C)=O)C(C)=O", "note": "[Melengestrol acetate]", "ThS net change": 404},
      {"smiles": "CC12CC3CC(C)(C1)CC(N)(C3)C2", "note": "[Memantine Hydrochloride]", "ThS net change": 405},
      {"smiles": "CCCNC(C)(C)COC(=O)c1ccccc1", "note": "[Meprylcaine hydrochloride]", "ThS net change": 405},
      {"smiles": "CN1CCCCC1CCN1c2ccccc2Sc2ccc([S+](C)[O-])cc21", "note": "(stereo not drawn) [Mesoridazine besylate]", "ThS net change": 391},
      {"smiles": "CC[N+](C)(CC)CCOC(=O)C1c2ccccc2Oc2ccccc21", "note": "[Methantheline bromide]", "ThS net change": 400},
      {"smiles": "C1N2CN3CN1CN(C2)C3", "note": "[Methenamine]", "ThS net change": 391},
      {"smiles": "Cn1cc[nH]c1=S", "note": "[Methimazole]", "ThS net change": 393},
      {"smiles": "CSc1ccc2c(c1)C(N1CCN(C)CC1)Cc1ccccc1S2.O=C(O)/C=C\\C(=O)O", "note": "(stereo not drawn) [Methiothepin maleate]", "ThS net change": 379},
      {"smiles": "COc1ccccc1OCC(O)COC(N)=O", "note": "(stereo not drawn) [Methocarbamol]", "ThS net change": 409},
      {"smiles": "COc1ccc(OC)c(C(O)C(C)N)c1", "note": "(stereo not drawn) [Methoxamine hydrochloride]", "ThS net change": 405},
      {"smiles": "CCOC(=O)[C@@](C)(N)Cc1ccc(O)c(O)c1", "note": "[Methyldopate hydrochloride]", "ThS net change": 385},
      {"smiles": "C[C@H]1NC(=O)NC1=O", "note": "[Methylhydantoin-5-(D)]", "ThS net change": 384},
      {"smiles": "CN1CCCC(CC2c3ccccc3Sc3ccccc32)C1", "note": "(stereo not drawn) [Metixene hydrochloride]", "ThS net change": 386},
      {"smiles": "CC(=O)Nc1c(I)c(C(=O)N[C@H]2C(O)O[C@H](CO)[C@@H](O)[C@@H]2O)c(I)c(N(C)C(C)=O)c1I", "note": "(stereo partly drawn) [Metrizamide]", "ThS net change": 400},
      {"smiles": "Cc1cccc(C)c1OCC(C)N", "note": "(stereo not drawn) [Mexiletine hydrochloride]", "ThS net change": 381},
      {"smiles": "CC#C[C@]1(O)CC[C@H]2[C@@H]3CCC4=CC(=O)CCC4=C3[C@@H](c3ccc(N(C)C)cc3)C[C@@]21C", "note": "[Mifepristone]", "ThS net change": 382}
    ]},
    {"tested_on": "T1, 1N4R p-tau", "assay": "p-tau aggregation modulator screen of 1280-compound library (ThS fluorescence net change over 16 h);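 also: 30 µM compound with 6 µM p-tau over 16 h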", "assay_type": "biochemical", "settings": "1280-compound library screen; […]", "values": [
      {"smiles": "CNC(C)(C)Cc1ccccc1.CNC(C)(C)Cc1ccccc1.O=S(=O)(O)O", "note": "[Mephentermine hemisulfate]", "ThS net change": 380},
      {"smiles": "CC[C@@H](CO)NC(=O)[C@@H]1C=C2c3cccc4[nH]cc(c34)C[C@H]2N(C)C1", "note": "[Methylergometrine maleate]", "ThS net change": 393},
      {"smiles": "COc1ccc(OC)c(C(O)CNC(=O)CN)c1", "note": "(stereo not drawn) [Midodrine hydrochloride]", "ThS net change": 385}
    ]},
    {"tested_on": "T1, 1N4R p-tau", "assay": "p-tau aggregation modulator screen of 1280-compound library (ThS fluorescence net change over 16 h);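 also: 30 µM compound with 6 µM p-tau over 16 h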", "assay_type": "biochemical", "settings": "library screen, ThS fluorescence net change over 16 h with p-tau", "values": [
      {"smiles": "C[C@H](N)[C@H](O)c1cccc(O)c1", "note": "[Metaraminol bitartrate]", "ThS net change": 321},
      {"smiles": "CN(Cc1cnc2nc(N)nc(N)c2n1)c1ccc(C(=O)N[C@@H](CCC(=O)O)C(=O)O)cc1", "note": "[Methotrexate]", "ThS net change": 326},
      {"smiles": "CCN(CC)CCNC(=O)c1cc(Cl)c(N)cc1OC.Cl", "note": "[Metoclopramide monohydrochloride]", "ThS net change": 299},
      {"smiles": "Clc1ccc(COC(Cn2ccnc2)c2ccc(Cl)cc2Cl)c(Cl)c1", "note": "(stereo not drawn) [Miconazole]", "ThS net change": 316},
      {"smiles": "Cc1cc(-c2ccccc2)nnc1NCCN1CCOCC1", "note": "[Minaprine dihydrochloride]", "ThS net change": 294}
    ]},
    {"tested_on": "T1, 1N4R p-tau", "assay": "p-tau aggregation modulator screen of 1280-compound library (ThS fluorescence net change over 16 h);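 also: 30 µM compound with 6 µM p-tau over 16 h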", "assay_type": "biochemical", "settings": "p-tau aggregation modulator screen of 1280-compound library; ThS fluorescence net change", "values": [
      {"smiles": "CC(=O)O[C@]1(C(C)=O)CC[C@H]2[C@@H]3C=C(C)C4=CC(=O)CC[C@]4(C)[C@H]3CC[C@@]21C", "note": "[Megestrol acetate]", "ThS net change": 343},
      {"smiles": "CNC[C@H](O)[C@@H](O)[C@H](O)[C@H](O)CO", "note": "[Meglumine]", "ThS net change": 368},
      {"smiles": "COc1ccc2[nH]cc(CCNC(C)=O)c2c1", "note": "[Melatonin]", "ThS net change": 356},
      {"smiles": "Cc1cnc(NC(=O)C2=C(O)c3ccccc3S(=O)(=O)N2C)s1", "note": "[Meloxicam]", "ThS net change": 375},
      {"smiles": "Cc1ccccc1OCC(O)CO", "note": "(stereo not drawn) [Mephenesin]", "ThS net change": 350},
      {"smiles": "Nc1ccc(O)c(C(=O)O)c1", "note": "[Mesalamine]", "ThS net change": 363},
      {"smiles": "CN1C[C@H](CNC(=O)OCc2ccccc2)C[C@@H]2c3cccc4c3c(cn4C)C[C@H]21", "note": "[Metergoline]", "ThS net change": 349},
      {"smiles": "CC(=O)OC(C)C[N+](C)(C)C", "note": "(stereo not drawn) [Methacholine chloride]", "ThS net change": 370},
      {"smiles": "CN(C)CCN(Cc1cccs1)c1ccccn1", "note": "[Methapyrilene hydrochloride]", "ThS net change": 370},
      {"smiles": "CC(=O)/N=c1/sc(S(N)(=O)=O)nn1C", "note": "[Methazolamide]", "ThS net change": 377},
      {"smiles": "COC(=O)Nc1nc2cc(SC(C)C)ccc2[nH]1", "note": "[Methiazole]", "ThS net change": 365},
      {"smiles": "COc1ccc2c(c1)N(C[C@H](C)CN(C)C)c1ccccc1S2.O=C(O)/C=C\\C(=O)O", "note": "[Methotrimeprazine maleat salt]", "ThS net change": 355},
      {"smiles": "Cc1cc(C(C)(C)CC(C)(C)C)ccc1OCCOCC[N+](C)(C)Cc1ccccc1.[Cl-]", "note": "[Methyl benzethonium chloride]", "ThS net change": 348},
      {"smiles": "C[C@H]1C[C@@H]2[C@H]([C@@H](O)C[C@@]3(C)[C@H]2CC[C@]3(O)C(=O)CO)[C@@]2(C)C=CC(=O)C=C12", "note": "[Methylprednisolone, 6-alpha]", "ThS net change": 340},
      {"smiles": "Cc1cc2c(cc1S(N)(=O)=O)S(=O)(=O)CCC2", "note": "[Meticrane]", "ThS net change": 368},
      {"smiles": "Cc1ccccc1N1C(=O)c2cc(S(N)(=O)=O)c(Cl)cc2NC1C", "note": "(stereo not drawn) [Metolazone]", "ThS net change": 364},
      {"smiles": "Cc1ncc([N+](=O)[O-])n1CCO", "note": "[Metronidazole]", "ThS net change": 365},
      {"smiles": "CC(C)(C(=O)c1cccnc1)c1cccnc1", "note": "[Metyrapone]", "ThS net change": 353},
      {"smiles": "CN1CCN2c3ccccc3Cc3ccccc3C2C1.Cl", "note": "(stereo not drawn) [Mianserine hydrochloride]", "ThS net change": 366},
      {"smiles": "OCCN1C[C@H](O)[C@@H](O)[C@H](O)[C@H]1CO", "note": "[Miglitol]", "ThS net change": 372}
    ]},
    {"tested_on": "T1, 1N4R p-tau", "assay": "p-tau aggregation modulator screen of 1280-compound library (ThS fluorescence net change over 16 h);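 also: 30 µM compound with 6 µM p-tau over 16 h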", "assay_type": "biochemical", "settings": "p-tau aggregation modulator screen of 1280-compound library; […]", "values": [
      {"smiles": "C[N+]1(C)CCCC(OC(=O)C(O)(c2ccccc2)c2ccccc2)C1", "note": "(stereo not drawn) [Mepenzolate bromide]", "ThS net change": 366}
    ]},
    {"tested_on": "T1, 1N4R p-tau", "assay": "p-tau aggregation modulator screen of 1280-compound library (ThS fluorescence net change over 16 h)", "assay_type": "biochemical", "settings": "p-tau aggregation modulator screen of the compound library, ThS fluorescence net change", "values": [
      {"smiles": "CCC1(c2ccccc2)NC(=O)N(C)C1=O", "note": "(stereo not drawn) [Mephenytoin]", "ThS net change": 453},
      {"smiles": "Cc1cccc(C)c1NC(=O)C1CCCCN1C", "note": "(stereo not drawn) [Mepivacaine hydrochloride]", "ThS net change": 428},
      {"smiles": "S=c1[nH]cnc2nc[nH]c12", "note": "[Mercaptopurine]", "ThS net change": 426},
      {"smiles": "C[C@@H](O)[C@H]1C(=O)N2C(C(=O)O)=C(S[C@@H]3CN[C@H](C(=O)N(C)C)C3)[C@H](C)[C@H]12", "note": "[Meropenem]", "ThS net change": 490},
      {"smiles": "O=S(=O)(O)CCS", "note": "[Mesna]", "ThS net change": 424},
      {"smiles": "CN(C)C(=N)N=C(N)N", "note": "[Metformin hydrochloride]", "ThS net change": 415},
      {"smiles": "C=C1c2cccc(O)c2C(=O)C2=C(O)[C@]3(O)C(=O)C(C(N)=O)=C(O)[C@@H](N(C)C)[C@@H]3[C@@H](O)[C@H]12", "note": "[Methacycline hydrochloride]", "ThS net change": 537},
      {"smiles": "C[N+]1(C)[C@@H]2CC[C@H]1C[C@@H](OC(=O)C(CO)c1ccccc1)C2", "note": "(stereo partly drawn) [Methylatropine nitrate]", "ThS net change": 413},
      {"smiles": "C[C@](N)(Cc1ccc(O)c(O)c1)C(=O)O", "note": "[Methyldopa (L,-)]", "ThS net change": 447},
      {"smiles": "CC1NC(=O)NC1=O", "note": "(stereo not drawn) [Methylhydantoin-5-(L)]", "ThS net change": 449},
      {"smiles": "CC1(O)CCOC(=O)C1", "note": "(stereo not drawn) [Mevalonic-D, L acid lactone]", "ThS net change": 438},
      {"smiles": "CC[C@H](C)C(=O)O[C@H]1CCC=C2C=C[C@H](C)[C@H](CC[C@@H]3C[C@@H](O)CC(=O)O3)[C@H]21", "note": "[Mevastatin]", "ThS net change": 497},
      {"smiles": "Cc1[nH]c(=O)c(C#N)cc1-c1ccncc1", "note": "[Milrinone]", "ThS net change": 423}
    ]}
  ]
}
